Source: patent publication US10023592B2, “Bromodomain inhibitors” (Celgene Quanticel Research, Inc., priority 2013, dated 2018)

How the values were obtained:
[1] = biological target: BRD4(BD1) (Homo sapiens (Human), UniProt O60885); assay: In vitro enzyme inhibition assay (BRD4 AlphaScreen); assay type: binding
In short: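 His-tagged BRD4 tested by AlphaScreen for binding of biotinylated H4K5/8/12/16-tetraacetyl peptide. After 20 min at room temperature, streptavidin donor and nickel chelate acceptor beads added (5 μg/mL final each). IC50 determined.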

[2] = test system: Raji, human Burkitts lymphoma cells; assay: Cell-MTS proliferation assay, Raji; assay type: cell-based; settings: Homo sapiens, 168 hr
In short: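 Seeded for ~90% confluence at 7 days (Raji 15,000, HL-60 5,000, NCI-H460 3,000 cells/well); compound added 24 h post-plating as 11-point dilution, 100 μM to 2.0 nM final.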

[3] = test system: HL-60, human proleukemia cells; assay: Cell-MTS proliferation assay, HL-60; assay type: cell-based; settings: Homo sapiens, 168 hr
Protocol: (§1) The Cell-MTS assay is a 7-day plate-based colorimetric assay which quantifies the amount of newly generated NADH in the presence or absence of test compound. The NADH level is used for the quantification of cancer cell proliferation.
(§2) Established cancer cell lines with a variety of driving mutations were obtained from American Type Culture Collection (ATCC) and routinely passaged according to ATCC protocols. For routine assay, these cells were seeded at densities which enabled ˜90% confluence after 7 days of culture. Raji, human Burkitts lymphoma cells, (cMYC) were seeded at 15,000 cells per 96-well. HL-60, human proleukemia cells, (NRAS, p16, p53, c-Myc amplified) were seeded at 5,000 cells per 96-well. NCI-H460, human non-small cell lung cancer cells, (KRAS, PIK3CA, STLK11, p16) were seeded at 3,000 cells per 96-well. 24 hr after plating, cells received an 11-point dilution of test compound with final concentration ranges from 100 μM to 2.0 nM. […] At the end of this incubation period, 80 μL of media is removed and 20 μL of CellTiter 96® AQueous Non-Radioactive Cell Proliferation Assay soln (Promega) was added. The cells were incubated until the OD490 was >0.6. IC50 values were calculated using the IDBS XLfit software package and include background subtracted OD490 values and normalization to DMSO controls. Cellular proliferation IC50 values were uploaded and archived using the Chem Biography Platform.

[4] = test system: NCI-H460, human non-small cell lung cancer cells; assay: Cell-MTS proliferation assay, NCI-H460; assay type: cell-based; settings: Homo sapiens, 168 hr
Protocol: as §1, §2

[5] = in vitro enzyme inhibition assay
[6] = NCI-H460, Cell-MTS proliferation
[7] = Cell-MTS proliferation, Raji cells
[8] = Cell-MTS proliferation, HL-60 cells
[9] = Cell-MTS proliferation, NCI-H460 cells
[10] = Raji, Cell-MTS, class symbols A/B/C
[11] = HL-60, Cell-MTS, class symbols A/B/C
[12] = NCI-H460, Cell-MTS, class symbols A/B/C

SMILES	IC50 [1, 5] [nM]	IC50 ([2]; Raji, Cell-MTS proliferation) [nM]	IC50 ([3]; HL-60, Cell-MTS proliferation) [nM]	IC50 [4, 6] [nM]	IC50 [2, 7] [nM]	IC50 [3, 8] [nM]	IC50 [4, 9] [nM]	IC50 ([1]; class symbols A/B/C) [nM]	IC50 [2, 10] [nM]	IC50 [3, 11] [nM]	IC50 [4, 12] [nM]
CCS(=O)(=O)Nc1ccc(Oc2ccc(F)cc2F)c(-c2cc(C3CC3)c(=O)n(C)c2)c1 [Example 140, N-[3-(5-cyclopropyl-1-methyl-6-oxopyridin-3-yl)-4-(2,4-difluorophenoxy)phenyl]ethanesulfonamide]	< 500	< 500	< 500	> 5000	–	–	–	–	–	–	–
CCS(=O)(=O)c1ccc(OCC2CC2)c(-c2cn(C)c(=O)c3ccoc23)c1 [Example 378, 7-[2-(cyclopropylmethoxy)-5-ethylsulfonylphenyl]-5-methylfuro[3,2-c] pyridin-4-one]	< 500	–	–	–	< 500	< 500	500 to 5000	–	–	–	–
Cc1cc(-c2cc(S(C)(=O)=O)ccc2NC2CCOCC2)cn(C)c1=O [Example 436, 1,3-dimethyl-5-[5-methylsulfonyl-2-(oxan-4-ylamino)phenyl]pyridin-2-one]	< 500	–	–	–	500 to 5000	< 500	> 5000	–	–	–	–
Cn1cc(-c2cc(S(C)(=O)=O)ccc2Oc2ccc(F)cc2F)c2ccccc2c1=O [Example 92, 4-[2-(2,4-difluorophenoxy)-5-methylsulfonylphenyl]-2-methylisoquinolin-1-one]	–	–	–	–	–	–	–	< 500	< 500	< 500	> 5000
Cn1cc(-c2cc(S(C)(=O)=O)ccc2OCC2CC2)ccc1=O [Example 98, 5-[2-(cyclopropylmethoxy)-5-methylsulfonylphenyl]-1-methylpyridin-2-one]	–	–	–	–	–	–	–	500 to 5000	500 to 5000	500 to 5000	> 5000
CCS(=O)(=O)Nc1cc(Oc2ccc(F)cc2F)cc(-c2cc(C)c(=O)n(C)c2)c1 [Example 342, N-[3-(2,4-difluorophenoxy)-5-(1,5-dimethyl-6-oxopyridin-3-yl)phenyl]ethanesulfonamide]	< 500	< 500	< 500	500 to 5000	–	–	–	–	–	–	–
CCS(=O)(=O)c1ccc(NCC2CC2)c(-c2cc(C)c(=O)n(C)c2)c1 [Example 465, 5-[2-(cyclopropylmethylamino)-5-ethylsulfonylphenyl]-1,3-dimethylpyridin-2-one]	< 500	–	–	–	< 500	< 500	> 5000	–	–	–	–
Cc1cc(-c2cc(OCCC3CC3)cc(S(C)(=O)=O)c2)cn(C)c1=O [Example 327, 5-[3-(2-cyclopropylethoxy)-5-methylsulfonylphenyl]-1,3-dimethylpyridin-2-one]	< 500	500 to 5000	500 to 5000	> 5000	–	–	–	–	–	–	–
Cn1cc(-c2cc(S(C)(=O)=O)ccc2NC2CCOC2)c2ccccc2c1=O (stereo not shown) [Example 190, 2-methyl-4-[5-methylsulfonyl-2-(oxolan-3-ylamino)phenyl]isoquinolin-1-one]	< 500	500 to 5000	500 to 5000	> 5000	–	–	–	–	–	–	–
CCS(=O)(=O)Nc1ccc(Oc2ccc(F)cc2F)c(-c2cn(C)c(=O)c3cnccc23)c1 [Example 57, N-[4-(2,4-difluorophenoxy)-3-(2-methyl-1-oxo-2,7-naphthyridin-4-yl)phenyl]ethanesulfonamide]	–	–	–	–	–	–	–	< 500	< 500	< 500	> 5000
CCS(=O)(=O)Nc1ncc(Oc2ccc(F)cc2F)c(-c2cc(C)c(=O)n(CC3CC3)c2)n1 [Example 249, N-[4-[1-(cyclopropylmethyl)-5-methyl-6-oxopyridin-3-yl]-5-(2,4-difluorophenoxy)pyrimidin-2-yl]ethanesulfonamide]	< 500	< 500	< 500	> 5000	–	–	–	–	–	–	–
Cn1cc(-c2cc(S(C)(=O)=O)ccc2Oc2ccc(F)cc2F)cc(F)c1=O [Example 120, 5-[2-(2,4-difluorophenoxy)-5-methylsulfonylphenyl]-3-fluoro-1-methylpyridin-2-one]	–	–	–	–	–	–	–	500 to 5000	> 5000	500 to 5000	> 5000
Cn1cc(-c2cc(NS(C)(=O)=O)ccc2Oc2ccc(F)cc2F)cc(C2CC2)c1=O [Example 279, N-[3-(5-cyclopropyl-1-methyl-6-oxopyridin-3-yl)-4-(2,4-difluorophenoxy)phenyl]methanesulfonamide]	< 500	< 500	< 500	> 5000	–	–	–	–	–	–	–
CN(C)c1cc(-c2cc(S(C)(=O)=O)ccc2NCC2CC2)cn(C)c1=O [Example 438, 5-[2-(cyclopropylmethylamino)-5-methylsulfonylphenyl]-3-(dimethylamino)-1-methylpyridin-2-one]	< 500	–	–	–	< 500	< 500	> 5000	–	–	–	–
CCN(c1ncc(OCC2CC2)c(-c2cc(C)c(=O)n(C)c2)n1)S(C)(=O)=O [Example 162, N-[5-(cyclopropylmethoxy)-4-(1,5-dimethyl-6-oxopyridin-3-yl)pyrimidin-2-yl]-N-ethylmethanesulfonamide]	< 500	< 500	< 500	> 5000	–	–	–	–	–	–	–
Cn1cc(-c2nc(S(C)(=O)=O)ccc2OCC2CC2)c2ccccc2c1=O [Example 199, 4-[3-(cyclopropylmethoxy)-6-methylsulfonylpyridin-2-yl]-2-methylisoquinolin-1-one]	< 500	< 500	< 500	> 5000	–	–	–	–	–	–	–
CCN(c1ncc(OCC2CC2)c(-c2cn(C)c(=O)c3ccccc23)n1)S(C)(=O)=O [Example 161, N-[5-(cyclopropylmethoxy)-4-(2-methyl-1-oxoisoquinolin-4-yl)pyrimidin-2-yl]-N-ethylmethanesulfonamide]	< 500	< 500	< 500	> 5000	–	–	–	–	–	–	–
CCS(=O)(=O)Nc1ccc(Oc2ccc(F)cc2F)c(-c2cn(C)c(=O)c3ccccc23)c1 [Example 93, N-[4-(2,4-difluorophenoxy)-3-(2-methyl-1-oxoisoquinolin-4-yl)phenyl]ethanesulfonamide]	–	–	–	–	–	–	–	< 500	< 500	< 500	> 5000
CCS(=O)(=O)Nc1cnc(OCC2CC2)c(-c2cn(C)c(=O)c3sc(C(N)=O)cc23)c1 [Example 268, 4-[2-(cyclopropylmethoxy)-5-(ethylsulfonylamino)pyridin-3-yl]-6-methyl-7-oxothieno[2,3-c]pyridine-2-carboxamide]	< 500	500 to 5000	< 500	> 5000	–	–	–	–	–	–	–
Cc1cc(-c2cc(S(C)(=O)=O)ccc2OC2CCOC2)cn(C)c1=O (stereo not shown) [Example 426, 1,3-dimethyl-5-[5-methylsulfonyl-2-(oxolan-3-yloxy)phenyl]pyridin-2-one]	< 500	–	–	–	500 to 5000	500 to 5000	> 5000	–	–	–	–
Cn1cc(-c2cc(S(C)(=O)=O)ccc2NC2CCOCC2)c2ccccc2c1=O [Example 191, 2-methyl-4-[5-methylsulfonyl-2-(oxan-4-ylamino)phenyl]isoquinolin-1-one]	< 500	< 500	< 500	> 5000	–	–	–	–	–	–	–
Cc1cc(-c2cc(OC(C)c3ccccc3)cc(S(C)(=O)=O)c2)cn(C)c1=O (stereo not shown) [Example 336, 1,3-dimethyl-5-[3-methylsulfonyl-5-(1-phenylethoxy)phenyl]pyridin-2-one]	< 500	500 to 5000	< 500	> 5000	–	–	–	–	–	–	–
CCS(=O)(=O)Nc1ncc(OCC2CC2)c(-c2cn(C)c(=O)c3c2CCCC3)n1 [Example 164, N-[5-(cyclopropylmethoxy)-4-(2-methyl-1-oxo-5,6,7,8-tetrahydroisoquinolin-4-yl)pyrimidin-2-yl]ethanesulfonamide]	< 500	< 500	500 to 5000	> 5000	–	–	–	–	–	–	–
Cc1cc(-c2cc(OCc3ccccc3C#N)cc(S(C)(=O)=O)c2)cn(C)c1=O [Example 334, 2-[[3-(1,5-dimethyl-6-oxopyridin-3-yl)-5-methylsulfonylphenoxy]methyl]benzonitrile]	< 500	500 to 5000	< 500	> 5000	–	–	–	–	–	–	–
Cn1cc(-c2nc(NS(C)(=O)=O)ncc2OCC2CC2)c2ccccc2c1=O [Example 152, N-[5-(cyclopropylmethoxy)-4-(2-methyl-1-oxoisoquinolin-4-yl)pyrimidin-2-yl]methanesulfonamide]	< 500	< 500	< 500	> 5000	–	–	–	–	–	–	–
